Patent US7501417B2, “Aminocarbonyl-derivatives as novel inhibitors of histone deacetylase” (Janssen Pharmaceutica, N.V., priority 2002, dated 2009)
≈ marks a conversion by molar mass, not a printed value.

Legend:
[1] = molecular target: HDAC (HeLa nuclear extracts); assay: In vitro assay for inhibition of histone deacetylase; format: biochemical; settings: [3H]acetylated histone H4 peptide substrate
Experimental: The in vitro assay for inhibition of histone deacetylase (see example C.1) measures the inhibition of HDAC enzymatic activity obtained with the compounds of formula (I).
HeLa nuclear extracts (supplier: Biomol) were incubated at 60 μg/ml with 2×10^−8 M of radiolabeled peptide substrate. As a substrate for measuring HDAC activity a synthetic peptide, i.e. the amino acids 14-21 of histone H4, was used. The substrate is biotinylated at the NH2-terminal part with a 6-aminohexanoic acid spacer, and is protected at the COOH-terminal part by an amide group and specifically [^3H]acetylated at lysine 16. The substrate, biotin-(6-aminohexanoic)Gly-Ala-([^3H]-acetyl-Lys-Arg -His-Arg-Lys-Val-NH2), was added in a buffer containing 25 mM Hepes, 1 M sucrose, 0.1 mg/ml BSA and 0.01% Triton X-100 at pH 7.4. After 30 min the deacetylation reaction was terminated by the addition of HCl and acetic acid. (final concentration 0.035 mM and 3.8 mM respectively). After stopping the reaction, the free ^3H-acetate was extracted with ethylacetate. After mixing and centrifugation, the radioactivity in an aliquot of the upper (organic) phase was counted in a β-counter.
For each experiment, controls (containing HeLa nuclear extract and DMSO without compound), a blank incubation (containing DMSO but no HeLa nuclear extract or compound) and samples (containing compound dissolved in DMSO and HeLa nuclear extract) were run in parallel. In first instance, compounds were tested at a concentration of 10^−5M. […] In each test the blank value was subtracted from both the control and the sample values. The control sample represented 100% of substrate deactylation. For each sample the radioactivity was expressed as a percentage of the mean value of the controls. […] Herein the effects of test compounds are expressed as pIC50 (the negative log value of the IC50-value).

[2] = tested on: A2780 ovarian carcinoma cells; assay: Determination of antiproliferative activity on A2780 cells (MTT); format: cell-based; settings: Homo sapiens, 96 h, four days of incubation, read-out: Cellular activity pIC50 (converted)
Experimental: Cellular activity of the compounds of formula (I) was determined on A2780 tumour cells using a colorimetric assay for cell toxicity or survival (Mosmann Tim, Journal of Immunological Methods 65: 55-63, 1983)(see example C.2).
All compounds tested were dissolved in DMSO and further dilutions were made in culture medium. Final DMSO concentrations never exceeded 0.1% (v/v) in cell proliferation assays. Controls contained A2780 cells and DMSO without compound and blanks contained DMSO but no cells. MTT was dissolved at 5 mg/ml in PBS. A glycine buffer comprised of 0.1 M glycine and 0.1 M NaCl buffered to pH 10.5 with NaOH (1 N) was prepared (all reagents were from Merck).
The human A2780 ovarian carcinoma cells (a kind gift from Dr. T. C. Hamilton [Fox Chase Cancer Centre, Pennsylvania, USA]) were cultured in RPMI 1640 medium supplemented with 2 mM L-glutamine, 50 μg/ml gentamicin and 10% fetal calf serum. Cells were routinely kept as monolayer cultures at 37° C. in a humidified 5% CO2 atmosphere. Cells were passaged once a week using a trypsin/EDTA solution at a split ratio of 1:40. All media and supplements were obtained from Life Technologies. Cells were free of mycoplasma contamination as determined using the Gen-Probe Mycoplasma Tissue Culture kit (supplier: BioMérieux).
Cells were seeded in NUNC™ 96-well culture plates (Supplier: Life Technologies) and allowed to adhere to the plastic overnight. Densities used for plating were 1500 cells per well in a total volume of 200 μl medium. After cell adhesion to the plates, medium was changed and drugs and/or solvents were added to a final volume of 200 μl. Following four days of incubation, medium was replaced by 200 μl fresh medium and cell density and viability was assessed using an MTT-based assay. To each well, 25 μl MTT solution was added and the cells were further incubated for 2 hours at 37° C. The medium was then carefully aspirated and the blue MTT-formazan product was solubilized by addition of 25 μl glycine buffer followed by 100 μl of DMSO. […] Within an experiment, the results for each experimental condition are the mean of 3 replicate wells. For initial screening purposes, compounds were tested at a single fixed concentration of 10^−6 M. For active compounds, the experiments were repeated to establish full concentration-response curves. For each experiment, controls (containing no drug) and a blank incubation (containing no cells or drugs) were run in parallel. The blank value was subtracted from all control and sample values. For each sample, the mean value for cell growth (in absorbance units) was expressed as a percentage of the mean value for cell growth of the control. […] Herein the effects of test compounds are expressed as pIC50 (the negative log value of the IC50-value).

[3] = Kinetic solubility in aqueous media (nephelometry); format: physicochemical; settings: aqueous buffer, kinetic from dmso stock; phosphate citrate buffer pH 7.4, turbidity of three dilution steps; read-out: Solubility Score
Experimental: Kinetic solubility in aqueous media measures the ability of a compound to stay in aqueous solution upon dilution (see example C.3).
DMSO-stock solutions are diluted with a single aqueous buffer solvent in 3 consecutive steps. For every dilution turbidity is measured with a nephelometer.
In the first dilution step, 10 μl of a concentrated stock-solution of the active compound, solubilized in DMSO (5 mM), was added to 100 μl phosphate citrate buffer pH 7.4 and mixed. In the second dilution step, an aliquot (20 μl) of the first dilution step was further dispensed in 100 μl phosphate citrate buffer pH 7.4 and mixed. Finally, in the third dilution step, a sample (20 μl) of the second dilution step was further diluted in 100 μl phosphate citrate buffer pH 7.4 and mixed. All dilutions were performed in 96-well plates. Immediately after the last dilution step the turbidity of the three consecutive dilution steps were measured with a nephelometer. Dilution was done in triplicate for each compound to exclude occasional errors. Based on the turbidity measurements a ranking is performed into 3 classes. Compounds with high solubility obtained a score of 3 and for this compounds the first dilution is clear. Compounds with medium solubility obtained a score of 2. For these compounds the first dilution is unclear and the second dilution is clear. […] The solubility of 3 compounds was measured.

| SMILES | Enzyme activity pIC50 [1] | IC50 [2] [µM] | solubility [3] [µM] | melting point [°C] |
| --- | --- | --- | --- | --- |
| Cc1ccc(NC(=O)N2CCN(c3ccc(C(=O)NO)cc3)CC2)cc1 [Co. No. 1] | 6.754 | 4.7 | < 75.8 |  |
| Cc1ccc(NC(=O)N2CCN(c3ccc(NC(=O)CS)cc3)CC2)cc1 [Co. No. 3] | 5.332 | > 10 |  |  |
| Cc1ccc(NC(=O)N2CCN(c3ccc(C(=O)NCCO)cc3)CC2)cc1 [Co. No. 2] | <5 | > 10 |  |  |
| O=C(NCC1CCN(c2ncc(C(=O)NO)cn2)CC1)Nc1ccc(-c2ccccc2)cc1 [Co. No. 5] | 7.65 | 0.711 | 75.8 to 454 (≈ 33.8 to 203 µg/mL) | > 260 |

Further lines, results first:

| Enzyme activity pIC50 [1] | IC50 [2] [µM] | solubility [3] [µM] | melting point [°C] | SMILES |
| --- | --- | --- | --- | --- |
| 7.127 | 0.769 |  |  | O=C(NO)c1cnc(N2CCN(C(=O)N(c3ccccc3)c3ccccc3)CC2)nc1 [Co. No. 4] |
| >5 |  |  |  | Cc1cccc(C)c1NC(=O)N1CCN(c2ccc([N+](=O)[O-])cc2C(=O)NO)CC1 [compound 30] |
| 7.163 | 0.723 |  |  | CN(C(=O)N1CCN(c2ncc(C(=O)NO)cn2)CC1)c1ccccc1 [compound 48] |
| 7.728 | 0.277 | > 454 | > 260 | O=C(NO)c1cnc(N2CCN(C(=O)Nc3ccc(-c4ccccc4)cc3)CC2)nc1 [Co. No. 6] |
